Measured values: US20260022142A1, “MACROCYCLIC IMMUNOMODULATORS” (Bristol-Myers Squibb Company, priority 2022, published 2026)
Bridge positions count the residues as written; N and C are the ends. Square brackets hold non-standard residues; d marks the D form. Peptide text beside a SMILES is read from it. * marks the point of attachment. Phe(4-COOH) = N[C@@H](Cc1ccc(C(=O)O)cc1)C(=O)O; Bip = N[C@@H](Cc1ccc(-c2ccccc2)cc1)C(=O)O; NH(CH2)14COOH = O=C(O)CCCCCCCCCCCCCCN*; Phe(3-Me) = Cc1cccc(C[C@H](N)C(=O)O)c1; NH(CH2)12COOH = O=C(O)CCCCCCCCCCCCN*; Val(3-OH) = CC(C)(O)[C@H](N)C(=O)O; 4Pal = N[C@@H](Cc1ccncc1)C(=O)O; Cha = N[C@@H](CC1CCCCC1)C(=O)O; Carboxymethyl = O=C(O)C*; Orn = NCCC[C@H](N)C(=O)O; Aun = NCCCCCCCCCCC(=O)O; Dab = NCC[C@H](N)C(=O)O; Nva = CCC[C@H](N)C(=O)O; Abu = CC[C@H](N)C(=O)O; AEEA = NCCOCCOCC(=O)O

target: T1, PD-1/PD-L1 interaction (PE-labeled human PD-L1-Ig binding to Jurkat cell line over-expressing human PD-1) (Homo sapiens, UniProt Q15116); assay: Jurkat-PD-1 Cell Binding High-Content Screening Assay (CBA); type: cell-based; settings: Jurkat cell line over-expressing human PD-1; PE-labeled PD-L1-Ig 20 nM final; read-out: Jurkat hPD1-PDL1 IC50
T1 construct: expressed in transfected cells; host or cells: Jurkat
T1 sequence (Q15116 25-288): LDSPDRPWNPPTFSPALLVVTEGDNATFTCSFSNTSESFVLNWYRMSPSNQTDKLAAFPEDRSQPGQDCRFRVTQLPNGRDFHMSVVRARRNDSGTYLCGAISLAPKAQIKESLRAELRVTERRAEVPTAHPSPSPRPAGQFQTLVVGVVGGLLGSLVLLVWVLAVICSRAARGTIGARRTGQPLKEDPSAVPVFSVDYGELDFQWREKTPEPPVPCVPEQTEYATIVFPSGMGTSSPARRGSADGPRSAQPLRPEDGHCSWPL
Procedure, shortened: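 Binding of fluorescent PD-L1-Ig (phycoerythrin on Ig tag, 20 nM final, 1 h) measured by high-content imaging of fixed, Hoechst-counterstained Jurkat-hPD-1 cells. Compound added 2 h at 37° C beforehand, in DMEM with 10% fetal calf serum.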

Row | Structure (SMILES) | IC50 [nM]
1 | Cc1cccc(C[C@@H]2NC(=O)[C@H](CC(=O)O)NC(=O)[C@H](Cc3ccc(OCC(=O)O)cc3)NC(=O)[C@H](CCN)NC(=O)CSC[C@@H](C(=O)N[C@@H](CCN)C(=O)NCCOCCOCC(=O)NCCCCCCCCCCCCC(=O)O)NC(=O)[C@H](CO)NC(=O)[C@H](C(C)(C)O)NC(=O)[C@H](CC3CCCCC3)NC(=O)[C@H](Cc3c[nH]cn3)NC(=O)[C@@H](CC(C)C)NC(=O)[C@H](CCCN)NC(=O)[C@H](Cc3ccc(OCC(=O)O)cc3)NC(=O)[C@H](Cc3ccc(-c4ccccc4)cc3)NC(=O)[C@H](Cc3ccc(OCC(=O)O)cc3)NC2=O)c1 [Compound 2875] ({CH2CO}-[Dab]Y(Carboxymethyl)D[Phe(3-Me)]Y(Carboxymethyl)[Bip]Y(Carboxymethyl)[Orn][dL]H[Cha][Val(3-OH)]SC[Dab][AEEA]-{NH(CH2)12COOH}; thioether N-14) | 8.3
2 | Cc1cccc(C[C@@H]2NC(=O)[C@H](CC(=O)O)NC(=O)[C@H](Cc3ccc(OCC(=O)O)cc3)NC(=O)[C@H](CCN)NC(=O)CSC[C@@H](C(=O)N[C@@H](CCN)C(=O)NCCOCCOCC(=O)NCCCCCCCCCCCCCCC(=O)O)NC(=O)[C@H](CO)NC(=O)[C@H](C(C)(C)O)NC(=O)[C@H](CC3CCCCC3)NC(=O)[C@H](Cc3c[nH]cn3)NC(=O)[C@@H](CC(C)C)NC(=O)[C@H](CCCN)NC(=O)[C@H](Cc3ccc(OCC(=O)O)cc3)NC(=O)[C@H](Cc3ccc(-c4ccccc4)cc3)NC(=O)[C@H](Cc3ccc(OCC(=O)O)cc3)NC2=O)c1 [Compound 2876] ({CH2CO}-[Dab]Y(Carboxymethyl)D[Phe(3-Me)]Y(Carboxymethyl)[Bip]Y(Carboxymethyl)[Orn][dL]H[Cha][Val(3-OH)]SC[Dab][AEEA]-{NH(CH2)14COOH}; thioether N-14) | 212
3 | CCC[C@@H]1NC(=O)CSC[C@@H](C(=O)N[C@@H](CCN)C(=O)NCCOCCOCC(=O)NCCCCCCCCCCC(=O)O)NC(=O)[C@H](CO)NC(=O)[C@H](C(C)(C)O)NC(=O)[C@H](CC2CCCCC2)NC(=O)[C@H](CCN)NC(=O)[C@@H](CC(C)C)NC(=O)[C@H](CCCN)NC(=O)[C@H](Cc2ccc(C(=O)O)cc2)NC(=O)[C@H](Cc2ccc(-c3ccccc3)cc2)NC(=O)[C@H](Cc2ccc(C(=O)O)cc2)NC(=O)[C@H](Cc2cccc(C)c2)NC(=O)[C@H](CC(=O)O)NC(=O)[C@H](Cc2ccc(OCC(=O)O)cc2)NC1=O [Compound 2877] ({CH2CO}-[Nva]Y(Carboxymethyl)D[Phe(3-Me)][Phe(4-COOH)][Bip][Phe(4-COOH)][Orn][dL][Dab][Cha][Val(3-OH)]SC[Dab][AEEA][Aun]-OH; thioether N-14) | 1.5
4 | CC[C@@H]1NC(=O)CSC[C@@H](C(=O)N[C@@H](CCN)C(=O)NCCOCCOCC(=O)NCCCCCCCCCCC(=O)O)NC(=O)[C@H](CO)NC(=O)[C@H](C(C)(C)O)NC(=O)[C@H](CC2CCCCC2)NC(=O)[C@H](CCN)NC(=O)[C@@H](CC(C)C)NC(=O)[C@H](CCCN)NC(=O)[C@H](Cc2ccc(OCC(=O)O)cc2)NC(=O)[C@H](Cc2ccc(-c3ccccc3)cc2)NC(=O)[C@H](Cc2ccc(OCC(=O)O)cc2)NC(=O)[C@H](Cc2cccc(C)c2)NC(=O)[C@H](CC(=O)O)NC(=O)[C@H](Cc2ccc(OCC(=O)O)cc2)NC1=O [Compound 2879] ({CH2CO}-[Abu]Y(Carboxymethyl)D[Phe(3-Me)]Y(Carboxymethyl)[Bip]Y(Carboxymethyl)[Orn][dL][Dab][Cha][Val(3-OH)]SC[Dab][AEEA][Aun]-OH; thioether N-14) | 2.7
5 | COc1ccc(C[C@@H]2NC(=O)[C@H](Cc3cccc(C)c3)NC(=O)[C@H](CC(=O)O)NC(=O)[C@H](Cc3ccc(C(=O)O)cc3)NC(=O)[C@H](Cc3ccncc3)NC(=O)CSC[C@@H](C(=O)N[C@@H](CCN)C(=O)NCCOCCOCC(=O)NCCOCCOCC(=O)NCCCCCCCCCCCCCCC(=O)O)NC(=O)[C@H](CO)NC(=O)[C@H](C(C)(C)O)NC(=O)[C@H](CC3CCCCC3)NC(=O)[C@H](CCN)NC(=O)[C@@H](CC(C)C)NC(=O)[C@H](CCCN)NC(=O)[C@H](Cc3ccc(C(=O)O)cc3)NC(=O)[C@H](Cc3ccc(-c4ccccc4)cc3)NC2=O)cc1 [Compound 2885] ({CH2CO}-[4Pal][Phe(4-COOH)]D[Phe(3-Me)]Y(Me)[Bip][Phe(4-COOH)][Orn][dL][Dab][Cha][Val(3-OH)]SC[Dab][AEEA][AEEA]-{NH(CH2)14COOH}; thioether N-14) | 2690
6 | Cc1cccc(C[C@@H]2NC(=O)[C@H](CC(=O)O)NC(=O)[C@H](Cc3ccc(C(=O)O)cc3)NC(=O)[C@H](CCN)NC(=O)CSC[C@@H](C(=O)N[C@@H](CCN)C(=O)NCCOCCOCC(=O)NCCOCCOCC(=O)NCCCCCCCCCCCCC(=O)O)NC(=O)[C@H](Cc3c[nH]cn3)NC(=O)[C@H](C(C)(C)O)NC(=O)[C@H](CC3CCCCC3)NC(=O)[C@H](CCN)NC(=O)[C@@H](CC(C)C)NC(=O)[C@H](CCCN)NC(=O)[C@H](Cc3ccc(C(=O)O)cc3)NC(=O)[C@H](Cc3ccc(-c4ccccc4)cc3)NC(=O)[C@H](Cc3ccc(C(=O)O)cc3)NC2=O)c1 [Compound 2886] ({CH2CO}-[Dab][Phe(4-COOH)]D[Phe(3-Me)][Phe(4-COOH)][Bip][Phe(4-COOH)][Orn][dL][Dab][Cha][Val(3-OH)]HC[Dab][AEEA][AEEA]-{NH(CH2)12COOH}; thioether N-14) | 10

Next, values leading:

Row | IC50 [nM] | Structure (SMILES)
7 | 1.6 | CC[C@@H]1NC(=O)CSC[C@@H](C(=O)N[C@@H](CCN)C(=O)NCCOCCOCC(=O)NCCOCCOCC(=O)NCCCCCCCCCCC(=O)O)NC(=O)[C@H](CO)NC(=O)[C@H](C(C)(C)O)NC(=O)[C@H](CC2CCCCC2)NC(=O)[C@H](CCN)NC(=O)[C@@H](CC(C)C)NC(=O)[C@H](CCCN)NC(=O)[C@H](Cc2ccc(C(=O)O)cc2)NC(=O)[C@H](Cc2ccc(-c3ccccc3)cc2)NC(=O)[C@H](Cc2ccc(C(=O)O)cc2)NC(=O)[C@H](Cc2cccc(C)c2)NC(=O)[C@H](CC(=O)O)NC(=O)[C@H](Cc2ccc(OCC(=O)O)cc2)NC1=O [Compound 2882] ({CH2CO}-[Abu]Y(Carboxymethyl)D[Phe(3-Me)][Phe(4-COOH)][Bip][Phe(4-COOH)][Orn][dL][Dab][Cha][Val(3-OH)]SC[Dab][AEEA][AEEA][Aun]-OH; thioether N-14)
8 | 4.9 | CCC[C@@H]1NC(=O)CSC[C@@H](C(=O)N[C@@H](CCN)C(=O)NCCOCCOCC(=O)NCCOCCOCC(=O)NCCCCCCCCCCCCC(=O)O)NC(=O)[C@H](CO)NC(=O)[C@H](C(C)(C)O)NC(=O)[C@H](CC2CCCCC2)NC(=O)[C@H](CCN)NC(=O)[C@@H](CC(C)C)NC(=O)[C@H](CCCN)NC(=O)[C@H](Cc2ccc(C(=O)O)cc2)NC(=O)[C@H](Cc2ccc(-c3ccccc3)cc2)NC(=O)[C@H](Cc2ccc(C(=O)O)cc2)NC(=O)[C@H](Cc2cccc(C)c2)NC(=O)[C@H](CC(=O)O)NC(=O)[C@H](Cc2ccc(OCC(=O)O)cc2)NC1=O [Compound 2883] ({CH2CO}-[Nva]Y(Carboxymethyl)D[Phe(3-Me)][Phe(4-COOH)][Bip][Phe(4-COOH)][Orn][dL][Dab][Cha][Val(3-OH)]SC[Dab][AEEA][AEEA]-{NH(CH2)12COOH}; thioether N-14)
9 | 133 | CCC[C@@H]1NC(=O)CSC[C@@H](C(=O)N[C@@H](CCN)C(=O)NCCOCCOCC(=O)NCCOCCOCC(=O)NCCCCCCCCCCCCCCC(=O)O)NC(=O)[C@H](CO)NC(=O)[C@H](C(C)(C)O)NC(=O)[C@H](CC2CCCCC2)NC(=O)[C@H](CCN)NC(=O)[C@@H](CC(C)C)NC(=O)[C@H](CCCN)NC(=O)[C@H](Cc2ccc(C(=O)O)cc2)NC(=O)[C@H](Cc2ccc(-c3ccccc3)cc2)NC(=O)[C@H](Cc2ccc(C(=O)O)cc2)NC(=O)[C@H](Cc2cccc(C)c2)NC(=O)[C@H](CC(=O)O)NC(=O)[C@H](Cc2ccc(OCC(=O)O)cc2)NC1=O [Compound 2884] ({CH2CO}-[Nva]Y(Carboxymethyl)D[Phe(3-Me)][Phe(4-COOH)][Bip][Phe(4-COOH)][Orn][dL][Dab][Cha][Val(3-OH)]SC[Dab][AEEA][AEEA]-{NH(CH2)14COOH}; thioether N-14)
10 | 18.4 | Cc1cccc(C[C@@H]2NC(=O)[C@H](CC(=O)O)NC(=O)[C@H](Cc3ccc(OCC(=O)O)cc3)NC(=O)[C@H](CCN)NC(=O)CSC[C@@H](C(=O)N[C@@H](CCN)C(=O)NCCOCCOCC(=O)NCCOCCOCC(=O)NCCCCCCCCCCCCC(=O)O)NC(=O)[C@H](CO)NC(=O)[C@H](C(C)(C)O)NC(=O)[C@H](CC3CCCCC3)NC(=O)[C@H](Cc3c[nH]cn3)NC(=O)[C@@H](CC(C)C)NC(=O)[C@H](CCCN)NC(=O)[C@H](Cc3ccc(C(=O)O)cc3)NC(=O)[C@H](Cc3ccc(-c4ccccc4)cc3)NC(=O)[C@H](Cc3ccc(C(=O)O)cc3)NC2=O)c1 [Compound 2887] ({CH2CO}-[Dab]Y(Carboxymethyl)D[Phe(3-Me)][Phe(4-COOH)][Bip][Phe(4-COOH)][Orn][dL]H[Cha][Val(3-OH)]SC[Dab][AEEA][AEEA]-{NH(CH2)12COOH}; thioether N-14)
11 | 38.2 | Cc1cccc(C[C@@H]2NC(=O)[C@H](CC(=O)O)NC(=O)[C@H](Cc3ccc(OCC(=O)O)cc3)NC(=O)[C@H](CCN)NC(=O)CSC[C@@H](C(=O)N[C@@H](CCN)C(=O)NCCOCCOCC(=O)NCCOCCOCC(=O)NCCCCCCCCCCCCC(=O)O)NC(=O)[C@H](CCC(=O)O)NC(=O)[C@H](C(C)(C)O)NC(=O)[C@H](CC3CCCCC3)NC(=O)[C@H](Cc3c[nH]cn3)NC(=O)[C@@H](CC(C)C)NC(=O)[C@H](CCCN)NC(=O)[C@H](Cc3ccc(C(=O)O)cc3)NC(=O)[C@H](Cc3ccc(-c4ccccc4)cc3)NC(=O)[C@H](Cc3ccc(C(=O)O)cc3)NC2=O)c1 [Compound 2888] ({CH2CO}-[Dab]Y(Carboxymethyl)D[Phe(3-Me)][Phe(4-COOH)][Bip][Phe(4-COOH)][Orn][dL]H[Cha][Val(3-OH)]EC[Dab][AEEA][AEEA]-{NH(CH2)12COOH}; thioether N-14)
